This note sets out measurements from patent US12251373B2, “Compounds and methods of treating retinal degeneration” (CASE WESTERN RESERVE UNIVERSITY, priority 2017, dated 2025).

One assay deals with T1, bovine rod opsin (Bos taurus, UniProt P02699).
T1 construct: Constitutive activity of bovine opsin in disc membranes; from tissue; host or cells: bovine ROS membranes (opsin membranes and Gt both from bovine ROS)
Briefly: Gt activation assay. The assay is classed as biochemical. The procedure:
Gt was extracted and purified from frozen bovine ROS membranes as described in Preparation of Opsin Membranes. The intrinsic increase in the fluorescence from Gtα was measured with a L55 luminescence spectrophotometer (PerkinElmer Life Sciences) using an excitation and emission wavelengths of 300 and 345 nm, respectively. […] DMSO-treated opsin membranes were used to obtain a baseline for the basal activity of opsin. The molar ratio of opsin to Gt was 1:10, with opsin at a concentration of 100 nM and Gt at 1000 nM. […] This step was followed by the addition of 300 μM GTPγS (Sigma-Aldrich) to determine the GTPγS-induced complex dissociation and corresponding fluorescence changes. Gt activation rates were determined and plotted for the first 100 s of the Gt activation assay.

For another assay, the target named is T2, rod opsin (Mus musculus, UniProt P15409).
T2 construct: expressed in transfected cells
The experiment in a line: cAMP quantification assay in NIH3T3-(WT-opsin/GFP) cells. The assay is classed as cell-based. From the text: Three NIH3T3 stable cell lines, NIH3T3-(WT-opsin/GFP), NIH3T3-(P23H-opsin/GFP), and NIH3T3-(GFP) were previously generated which stably express mouse WT opsin and GFP; P23H opsin and GFP; and only GFP, respectively. GFP is expressed separately from opsin in these cell lines. NIH3T3 cells were from ATCC. DNA constructs for generating these stable cell lines were confirmed by Sanger sequencing. Expression of GFP was confirmed by green fluorescence imaging, and expression of P23H and WT opsin were confirmed by immunoblots.
NIH3T3-(Opsin/GFP) and NIH3T3-(GFP) were plated in two 96-well plates at a density of 50,000 cells per well in 100 μl of DMEM medium containing 10% FBS and antibiotics. After 24 h, cells were washed with Krebs Ringer bicarbonate buffer containing glucose (KRBG), and incubated with KRBG buffer containing 100 μM cAMP specific phosphodiesterase inhibitor, Ro 20-1724 (Tocris, UK) at RT for 10 min. […] While one plate then was wrapped with aluminum foil, the second plate was exposed to regular room light. Both plates were kept in a cell culture incubator for 15 min at 37° C. in 5% CO2. Levels of accumulated cAMP were detected with the Catchpoint cAMP fluorescent assay kit (Molecular Devices, Sunnyvale, CA USA) and the fluorescence with excitation/emission at 530/590 nm was read with a Flexstation3 plate reader (Molecular Devices) as described in the manufacturer's protocol.

In a further assay the target is T3, human rod opsin P267L (Homo sapiens, UniProt P08100, P267L).
T3 construct: expressed in transfected cells; host or cells: NIH3T3, transfected with pcDNA3.1-hOpsin mutant
The experiment in a line: Cell surface immunostain for rhodopsin mutants in NIH3T3 cells. The assay is classed as cell-based. The conditions noted are these: YC-001 treatment. As to the method:
(§1) Human rhodopsin cDNA was placed into the pcDNA3.1(+) vector (pcDNA3.1-hOpsin). Site directed mutagenesis was performed following the QuickChange II site-directed mutagenesis kit (Agilent Technologies Inc.). Primers for the following mutations were as follows: […]
(§2) DNA vectors with rhodopsin mutations were confirmed by Sanger sequencing. After NIH3T3 cells were transfected with pcDNA3.1-hOpsin or its mutants for 24 h, these cells were resuspended and seeded into a 96-well plate with an optic bottom (Corning). […] Each condition was repeated in three wells. The treated plate was covered in tin foil and incubated at 37° C. with 5% CO2 for 24 h. Cells were then immunostained with Alexa […] 488-conjugated B6-30 anti-rhodopsin antibody. Cells were not exposed to detergents so that cell membranes were kept intact and only rhodopsin on the cell surface was immunostained. Alexa 488 fluorescence was imaged by the ImageExpress (Molecular Devices) high-content imager with a 20× objective. Medicinal Chemistry of YC-001

For another assay, the target named is T4, human rod opsin D190N (Homo sapiens, UniProt P08100, D190N).
T4 construct: expressed in transfected cells; host or cells: NIH3T3, transfected with pcDNA3.1-hOpsin mutant
The description is as above. It counts as cell-based. To be noted: YC-001 treatment. The procedure: as §1, §2

A further assay deals with T5, human rod opsin G106R (Homo sapiens, UniProt P08100, G106R).
T5 construct: expressed in transfected cells; host or cells: NIH3T3, transfected with pcDNA3.1-hOpsin mutant
The description is as above. It counts as cell-based. The conditions noted are these: YC-001 treatment. The procedure: as §1, §2

A further assay concerns the target T6, human rod opsin C110Y (Homo sapiens, UniProt P08100, C110Y).
T6 construct: expressed in transfected cells; host or cells: NIH3T3, transfected with pcDNA3.1-hOpsin mutant
The description is as above. To be noted: YC-001 treatment. It counts as cell-based. As to the method: as §1, §2

A further assay concerns the target T7, human clarin-1 N48K (Homo sapiens, UniProt P58418, N48K).
T7 sequence (P58418 1-232 N48K): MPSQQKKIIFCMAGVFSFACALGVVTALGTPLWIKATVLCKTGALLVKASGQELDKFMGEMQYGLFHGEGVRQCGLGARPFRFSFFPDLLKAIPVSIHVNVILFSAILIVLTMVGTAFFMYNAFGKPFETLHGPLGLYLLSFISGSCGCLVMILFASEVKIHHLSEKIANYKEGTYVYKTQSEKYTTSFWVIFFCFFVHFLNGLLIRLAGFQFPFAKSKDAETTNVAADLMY
Briefly: Image-based analysis of clarin-1 N48K-Venus in HEK 293 cells. It counts as cell-based. As to the method:
HEK 293 stable cells co-expressing human clarin-1 N48K-Venus fluorescent protein and DsRed-Express-DR fusion protein were obtained from Dr. Yoshikazu Imanishi at Case Western Reserve University (CWRU). Cells were cultured in DMEM medium with 10% FBS following guidelines from ATCC. To test effects of YC-001 treatments on clarin-1 N48K-Venus amounts in these cells, an image-based assay was performed. Briefly, cells were seeded at 20,000 cells per well in 40 μL per well DMEM medium with 10% FBS in a 384-well PerkinElmer View plate coated with poly-D-lysine and cultured at 37° C. with 5% CO2 for 24 h. Cells then were treated with 10 μL per well DMEM medium with 10% FBS containing 5× the final concentration of tested compounds. […] Each compound was tested with 10 doses in a 2-fold dilution series, featuring 3 biological replicates. The 384-well plate was put back for incubation at 37° C. with 5% CO2. After 24 h of exposure to test compounds, the plate was removed, and the medium was aspirated and replaced by 20 μL per well of 4% paraformaldehyde for fixation at RT for 20 min. […] Images were analyzed by the Columbus storage and analysis system (Perkin Elmer). Hoechst33342 fluorescence images were used to define nuclei and count cells. […] YFP and DsRed fluorescence intensities per cell were measured in each well.

A word on the EC50: it is the concentration needed to bring the measured effect to its halfway point.

T2 sequence (P15409 whole entry): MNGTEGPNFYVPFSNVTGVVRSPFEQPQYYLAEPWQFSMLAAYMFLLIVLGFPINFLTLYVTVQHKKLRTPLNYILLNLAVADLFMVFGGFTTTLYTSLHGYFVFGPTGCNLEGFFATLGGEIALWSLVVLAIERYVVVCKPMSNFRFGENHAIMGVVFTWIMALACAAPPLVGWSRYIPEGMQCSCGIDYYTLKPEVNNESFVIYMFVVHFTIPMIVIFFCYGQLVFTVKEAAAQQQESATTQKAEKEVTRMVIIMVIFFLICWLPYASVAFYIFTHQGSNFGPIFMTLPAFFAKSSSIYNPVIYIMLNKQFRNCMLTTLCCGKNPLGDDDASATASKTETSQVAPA
T1 sequence (P02699 whole entry): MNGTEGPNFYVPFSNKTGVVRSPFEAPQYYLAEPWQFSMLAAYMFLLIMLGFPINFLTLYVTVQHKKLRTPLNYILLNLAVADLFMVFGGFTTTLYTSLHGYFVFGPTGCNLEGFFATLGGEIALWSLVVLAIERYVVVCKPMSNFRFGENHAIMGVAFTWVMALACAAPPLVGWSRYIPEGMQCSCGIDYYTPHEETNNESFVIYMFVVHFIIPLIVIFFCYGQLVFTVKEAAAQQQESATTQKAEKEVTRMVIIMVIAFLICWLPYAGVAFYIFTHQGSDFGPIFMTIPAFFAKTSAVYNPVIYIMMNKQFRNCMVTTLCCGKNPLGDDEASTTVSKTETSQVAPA

Turning to `CC1=C(/C=C/C(C)=C\C=C\C(C)=C\C=O)C(C)(C)CCC1` [9-cis-retinal, reference compound], the “ln(kinitial), rate of Gt activation of regenerated isorhodopsin upon illumination” value on bovine rod opsin (40 μM 9-cis-retinal alone) was −4.6. Also, at rod opsin (NIH3T3-(WT-opsin/GFP) cells, light), the “cAMP level upon light exposure” value was “significantly reduced cAMP level”. The “fold increase in EC50 of 9-cis-retinal dose-response curve” value at rod opsin (with 40 μM YC-001 co-treatment vs 9-cis-retinal alone) was determined as 3 fold.

For `O=C1OCC(c2ccc(Cl)s2)=C1c1cccs1` [YC-001], the “ln(kinitial), initial rate of Gt activation for opsin” value at bovine rod opsin (40 μM compound, basal opsin activity) is listed as −6.1. Further, the “ln(kinitial), rate of Gt activation of regenerated isorhodopsin upon illumination” value at bovine rod opsin (co-treated with 40 μM 9-cis-retinal and 40 μM YC-001) was −4.9. Besides, the “cell surface staining of mutant opsin” value is recorded as “increased significantly” on human rod opsin P267L, “increased significantly” at human rod opsin D190N, “increased significantly” at human rod opsin G106R and “not effective” at human rod opsin C110Y. The “amount or stability of the clarin-1 N48K mutant” value on human clarin-1 N48K was “did not affect the amount or stability”. For the same compound, the “cAMP levels, co-treated with 1 μM 9-cis-retinal under light” value on rod opsin (FIG. 5c) is given as “dose-dependent elevation in cAMP levels”. Besides, the EC50 on rod opsin (either in the dark or light, read-out: EC50 of dose-dependent increase in cAMP levels) amounted to 8.22 µM.
